Publication PMC8615109, “Assessment of Micafungin Dosage Regimens in Patients with Cancer Using Pharmacokinetic/Pharmacodynamic Modeling and Monte Carlo Simulation” (Antibiotics, 2021)
Numbered stars: 1 amine (or outer) side, 2 acyl side, 3 side chain; on linkers, the order of the positions; unused ones are H or OH. Bridge positions count the residues as written; N and C are the ends. Square brackets hold non-standard residues; d marks the D form. Peptide text beside a SMILES is read from it. * marks the point of attachment. hTyr(3S-OH,4S-OH,3'-OSO3H) = N[C@H](C(=O)O)[C@H](O)[C@@H](O)c1ccc(O)c(OS(=O)(=O)O)c1; Orn(4R-OH,5R-OH) = O=C([C@H](C[C@@H](O)[C@@H](O)N[*:3])N[*:1])[*:2]; Pro(3S-OH,4S-Me) = C[C@H]1CN[C@H](C(=O)O)[C@H]1O; X1 = CCCCCOc1ccc(-c2cc(-c3ccc(C(=O)*)cc3)no2)cc1; Gln(3R-OH) = NC(=O)C[C@@H](O)[C@H](N)C(=O)O; Hyp = O=C(O)[C@@H]1C[C@@H](O)CN1

Key:
clinical = format: in vivo, human (adult patients); settings: population estimate; for clearance: both sexes, human, in vivo, iv, two-compartment population model (Monolix 4.4), plasma HPLC-UV
Description: This was a prospective pharmacokinetic study to compare adult patients with and without cancer. The study was conducted at King Saud University Medical City, a tertiary hospital. The study included male and female patients aged ≥ 18 years, who were admitted to the hospital and received a minimum of 2 micafungin doses based on empirical evidence or culture results. Patients who were pregnant and those with a micafungin allergy were excluded. The study protocol was approved by the Institutional Review Board of King Saud University Medical City (E-18-3373), and written informed consent was obtained from all patients before their inclusion in the study.
All patients were treated with a 100–150 mg daily dose of micafungin for empirical use or confirmed fungal infection. Micafungin was diluted in 100 mL isotonic saline solution and infused over 60 min. Blood samples were drawn at 1, 2, 4, 6, 8, 12, and 24 h from the initiation of the micafungin dose. All blood samples were centrifuged, and plasma samples were stored at −80 °C until analysis.
Plasma micafungin concentrations were determined using a high-performance liquid chromatography (HPLC) method with a UV detection system, with slight modification. Plasma samples were separated from whole blood, acidified with phosphoric acid, precipitated with acetonitrile, and centrifuged prior to dilution with buffer and injection into an HPLC system. Anidulafungin served as I.S. for micafungin. The method was fully validated and achieved using an isocratic Prominence Shimadzu HPLC system (Shimadzu, Columbia, MD, USA), which comprised an autosampler (SIL-20AHT), a UV detector (Shimadzu UV SPD-20A), and a pump (LC-20AB) connected to a degasser (Dgu-20A3). The separation of micafungin was performed on a Phenomenex Luna C18 column (250 × 4.6 mm i.d., 5 µm; Phenomenex, CA). The mobile phase comprised 0.1% (w/w) ammonium acetate in water, with pH adjusted to 7.0 with 25% NH3 solution and acetonitrile (70%:30%); the flow rate was 1 mL/min, and micafungin was detected at 273 nm. Data acquisition was achieved using LC Solution chromatographic software version 1.22 SP1 (Shimadzu, Columbia, MD, USA).
Data from patients with and without cancer were comodeled using Monolix 4.4 software (Supplementary File S1). Monolix estimates pharmacokinetic parameters using the stochastic approximation expectation maximization algorithm. In the first step, we developed the base structural model for micafungin by fitting various compartmental models to plasma drug concentrations. The following criteria were followed to select between models: (a) a decrease in the minimum of the objective function value (log-likelihood value); (b) precision of the parameter estimation expressed as RSE (%) and calculated as the ratio between the standard error and final parameter estimate; (c) physiologic plausibility; and (d) GOF plots including observed and predicted concentrations, residuals plot, and visual predictive check.
A covariate model was developed in a stepwise fashion, with forward inclusion based on model selection criteria. First, we plotted the empirical Bayesian estimates vs. covariates to screen for potentially significant correlations. Next, we performed a stepwise regression analysis to test the significant covariates identified in step 1, using the −2 log-likelihood ratio test. Age, body weight, height, BMI, sex, serum creatinine, creatinine clearance, sequential organ failure assessment score, and levels of AST, alanine transaminase, total bilirubin, and albumin were tested as covariates.
GOF was assessed using the log-likelihood criterion during model building. Plots of model-based individual and population predictions vs. the observed concentrations were performed for model assessment. A predicted–corrected visual predictive check using 1000 simulations was constructed to study the performance of the final model. […]

[1] = cited from earlier work
Excerpt: Micafungin is metabolized in the liver by catechol O-methyltransferase, arylsulfatase, and hydroxylation. Only 1% of the unchanged drug is excreted through the kidneys. […] The elimination pharmacokinetics of micafungin in patients with advanced hepatic insufficiency are not fully understood. […] We described the plasma concentration-time curve of micafungin using a two-compartment model, similar to that described in previous studies. […] Overall, there were no differences in the ...

[2] = patients with cancer (n = 10), 100 mg/day i.v.
[3] = patients without cancer (n = 9), 100-150 mg/day i.v.

CCCCCOc1ccc(-c2cc(-c3ccc(C(=O)N[C@H]4C[C@@H](O)[C@@H](O)NC(=O)[C@@H]5[C@@H](O)[C@@H](C)CN5C(=O)[C@H]([C@H](O)CC(N)=O)NC(=O)[C@H]([C@H](O)[C@@H](O)c5ccc(O)c(OS(=O)(=O)O)c5)NC(=O)[C@@H]5C[C@@H](O)CN5C(=O)[C@H]([C@@H](C)O)NC4=O)cc3)no2)cc1 [micafungin] (X1-[Orn(4R-OH,5R-OH)]T[Hyp][hTyr(3S-OH,4S-OH,3'-OSO3H)][Gln(3R-OH)][Pro(3S-OH,4S-Me)]; lactam 1-C)
clearance (clinical; patients with cancer (n = 10), 100 mg/day i.v. infusion over 60 min): 20 mL/min | clearance (clinical; patients without cancer (n = 9), 100-150 mg/day i.v. infusion over 60 min): 10 mL/min | Q (intercompartmental clearance) (clinical; [2]): 0.144 L/h | V1 (volume of the central compartment) (clinical; [2]): 10.7 L | V2 (volume of the peripheral compartment) (clinical; [2]): 3.5 L | Q (intercompartmental clearance) (clinical; [3]): 0.188 L/h | V1 (volume of the central compartment) (clinical; [3]): 12 L | V2 (volume of the peripheral compartment) (clinical; [3]): 2.77 L | terminal half-life ([1]; adults): approximately 15 h | unchanged drug excreted through the kidneys [1]: 1%
